# Tests used:
# [1] = target: BRD9:CRBN-DDB1 protein complex (Homo sapiens, UniProt Q96SW2+Q9H8M2); assay: BRD9:CRBN-DDB1 dimerization assay (luminescence); settings: for BRD9:CRB9-DDB1 AUC / BRD9:CRB9-DDB1 Cmax: luminescence detection of dimerization assay; for formation of the BRD9:CRBN-DDB1 protein complex: relative to unmodified thalidomide, in words
# Procedure: To measure this activity, a homogenous luminescence assay was developed to report on compound-induced proximity of BRD9 and CRBN.
# To detect CRBN-DDBI/BRD4 dimerization, we adapted bead-based AlphaScreen technology. […] Compounds were then pinned at 100 nL per well from DMSO stock. After 1 incubation at room temperature. Nickel Chelate AlphaLISA Acceptor and Glutathione AlphaLISA Donor beads (PerkinElmer) were diluted in assay buffer to 20 μg/mL and added at 20 μl per well.
# BRD4(1) = BRD4(1) (Homo sapiens, UniProt O60885); assay: BRD4(1) ligand-displacement AlphaScreen; assay type: binding; parameters: substituting protein and biotin-probe components for BRD4(1) protein at 20 nM final; His tag (inferred from Ni-coated acceptor beads)
# CRBN-DDB1 = target: T1, CRBN-DDB1 (Homo sapiens, UniProt Q96SW2); assay: CRBN-DDB1 ligand-displacement AlphaScreen; assay type: binding; settings: for IC50: purified CRBN-DDB1 ligand displacement
# T1 construct: made in house; host or cells: Sf9 cells (Invitrogen)
# T1 sequence (Q96SW2 whole entry): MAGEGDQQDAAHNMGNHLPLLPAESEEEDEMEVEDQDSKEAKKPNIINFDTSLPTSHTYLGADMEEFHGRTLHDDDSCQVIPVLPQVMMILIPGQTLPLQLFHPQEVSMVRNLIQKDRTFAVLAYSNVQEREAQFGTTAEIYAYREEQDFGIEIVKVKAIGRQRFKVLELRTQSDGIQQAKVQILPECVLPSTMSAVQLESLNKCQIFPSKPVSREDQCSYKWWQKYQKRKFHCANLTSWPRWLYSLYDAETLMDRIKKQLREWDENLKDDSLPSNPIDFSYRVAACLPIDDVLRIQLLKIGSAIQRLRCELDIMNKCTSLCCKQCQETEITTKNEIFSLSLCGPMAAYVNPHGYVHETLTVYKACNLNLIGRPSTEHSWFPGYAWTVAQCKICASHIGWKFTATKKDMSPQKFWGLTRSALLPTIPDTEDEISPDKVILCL
# T1 sequence (Q16531 whole entry partner): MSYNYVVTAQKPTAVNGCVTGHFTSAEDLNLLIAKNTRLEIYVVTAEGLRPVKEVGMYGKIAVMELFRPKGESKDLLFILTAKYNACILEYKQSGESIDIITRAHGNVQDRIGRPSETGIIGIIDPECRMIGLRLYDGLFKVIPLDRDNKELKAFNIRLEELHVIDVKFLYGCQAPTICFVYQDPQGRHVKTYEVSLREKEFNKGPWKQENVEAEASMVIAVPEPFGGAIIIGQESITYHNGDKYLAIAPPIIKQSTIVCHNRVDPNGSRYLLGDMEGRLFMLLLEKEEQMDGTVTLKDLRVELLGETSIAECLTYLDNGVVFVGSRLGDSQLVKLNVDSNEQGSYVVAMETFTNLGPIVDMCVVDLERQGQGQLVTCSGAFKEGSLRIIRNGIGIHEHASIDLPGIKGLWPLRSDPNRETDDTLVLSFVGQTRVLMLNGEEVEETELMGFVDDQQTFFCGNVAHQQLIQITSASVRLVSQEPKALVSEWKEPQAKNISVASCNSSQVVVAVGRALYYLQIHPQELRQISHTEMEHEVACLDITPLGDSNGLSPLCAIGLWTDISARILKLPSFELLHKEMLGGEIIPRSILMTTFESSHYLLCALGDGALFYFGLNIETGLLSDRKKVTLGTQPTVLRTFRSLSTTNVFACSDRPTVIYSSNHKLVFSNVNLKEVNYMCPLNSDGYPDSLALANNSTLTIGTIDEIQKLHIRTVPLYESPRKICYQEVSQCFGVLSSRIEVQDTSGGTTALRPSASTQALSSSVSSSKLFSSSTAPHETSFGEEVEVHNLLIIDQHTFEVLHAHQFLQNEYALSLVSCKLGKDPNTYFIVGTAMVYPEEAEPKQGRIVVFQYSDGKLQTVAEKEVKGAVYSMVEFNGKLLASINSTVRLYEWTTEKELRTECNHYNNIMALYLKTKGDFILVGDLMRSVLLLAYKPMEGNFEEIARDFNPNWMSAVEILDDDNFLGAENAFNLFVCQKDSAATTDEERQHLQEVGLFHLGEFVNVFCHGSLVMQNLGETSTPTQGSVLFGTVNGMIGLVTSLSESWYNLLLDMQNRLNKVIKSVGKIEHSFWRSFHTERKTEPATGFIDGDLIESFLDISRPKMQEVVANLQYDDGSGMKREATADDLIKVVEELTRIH
# Procedure: Following a 30 min incubation, 20 uL detection solution containing Streptavidin Donor Beads and Nickel Chelate AlphaLISA® Acceptor Beads diluted to 20 ng/uL in assay buffer was added to each well.
# BRD9 [2] = target: T2, BRD9 (Homo sapiens, UniProt Q9H8M2); assay: BRD9-ligand displacement AlphaScreen; assay type: binding
# T2 construct: A construct of human BRD9 covering residues 134-0245 in the pET28PP vector; made in house; host or cells: E. coli BL21 (DE3)
# T2 sequence (Q9H8M2 134-245 limits assumed): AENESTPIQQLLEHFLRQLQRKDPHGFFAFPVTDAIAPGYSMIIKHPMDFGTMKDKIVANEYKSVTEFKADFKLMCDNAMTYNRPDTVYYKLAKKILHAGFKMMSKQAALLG
# Procedure: BRD9 assays were performed with minimal modifications from the manufacturer's protocol (PerkinElmer, USA). All reagents were diluted in 50 mM HEPES, 150 mM NaCl, 0.1% w/v BSA, 0.01% w/v Tween20, pH 7.5. […] Plates were spun down at 150×g, and 100 nL of DMSO compound stock was added from pre-diluted plates by pin transfer using a Janus Workstation (PerkinElmer, USA). Under low light, a 2× suspension of Ni-coated Acceptor Beads and Streptavidin Donor Beads, was then added at 10 ul/well to a final concentration of 5 μg/ml by EL406 automated liquid handler (Biotek, USA).
# BRD9 [3] = target: T3, BRD9 (Homo sapiens, UniProt Q9H8M2); assay: BRD9 immunoblot in MOLM-13; settings: MOLM-13, 4 hour treatment, indicated concentrations; in words
# T3 sequence (Q9H8M2 1-597): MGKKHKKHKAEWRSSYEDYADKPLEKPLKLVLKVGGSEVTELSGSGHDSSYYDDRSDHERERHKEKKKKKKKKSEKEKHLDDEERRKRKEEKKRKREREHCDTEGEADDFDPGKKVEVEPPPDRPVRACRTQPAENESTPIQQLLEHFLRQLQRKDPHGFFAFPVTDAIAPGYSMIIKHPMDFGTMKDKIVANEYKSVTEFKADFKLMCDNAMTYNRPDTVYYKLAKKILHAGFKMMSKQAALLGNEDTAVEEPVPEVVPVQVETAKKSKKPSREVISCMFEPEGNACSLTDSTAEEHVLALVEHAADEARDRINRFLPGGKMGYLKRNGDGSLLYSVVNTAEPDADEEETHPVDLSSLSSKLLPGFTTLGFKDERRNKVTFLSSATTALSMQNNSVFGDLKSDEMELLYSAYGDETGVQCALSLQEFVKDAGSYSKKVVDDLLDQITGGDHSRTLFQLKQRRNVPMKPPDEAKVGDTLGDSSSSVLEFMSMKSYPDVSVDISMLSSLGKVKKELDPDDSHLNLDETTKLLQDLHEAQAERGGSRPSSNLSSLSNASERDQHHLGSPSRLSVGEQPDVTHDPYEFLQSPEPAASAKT
# Procedure: In additional experiments, cells were washed with PBS, before being lysed in RIPA buffer supplemented with 1×HALT™ protease inhibitor cocktail (Thermo Scientific) for 10 min on ice, followed by low-amplitude sonication for 10 seconds at 4° C. […] In soluble material was removed by centrifugation at 20,000×g for 20 min before protein content was quantified by BCA assay (Pierce). […] Blots were imaged using fluorescence-labeled secondary antibodies (LI-COR) on the OdysseyCLxImager (LI-COR).
# BRD9 [4] = target: T3, BRD9; assay: BRD9 degradation / cellular activity (Western blot, cell line not stated); settings: cell line not given
# Sequence of BRD9:CRBN-DDB1 protein complex (Q96SW2 whole entry, one chain of several): as the sequence (Q96SW2 whole entry) above
# Sequence of BRD9:CRBN-DDB1 protein complex (Q16531 whole entry partner, one chain of several): as the sequence (Q16531 whole entry partner) above
SMILES,BRD9:CRB9-DDB1 AUC [1],BRD9:CRB9-DDB1 Cmax [1],formation of the BRD9:CRBN-DDB1 protein complex [1],IC50 (BRD4(1)),IC50 (CRBN-DDB1),IC50 (BRD9 [2]),"BRD9:CRBN-DDB1 dimerization, comparison in words [1]",BRD9 protein level (immunoblot) (BRD9 [3]),"BRD9 degradation / cellular potency, in words (BRD9 [4])","CRBN-DDB1 affinity, in words (CRBN-DDB1; comparison of phthalimide linkages)"
COc1cc(-c2cn(C)c(=O)c3cc(C(=N)NC4CCS(=O)(=O)CC4)sc23)ccc1OCC(=O)NCCCCNC(=O)COc1cccc2c1C(=O)N(C1CCC(=O)NC1=O)C2=O (stereo not shown) [Compound I-1],44270,42.5 nM,significantly induce formation of the complex,3780 nM,48.9 nM,13.5 nM,–,–,–,–
COc1cc(-c2cn(C)c(=O)c3cc(C(=N)NC4CCS(=O)(=O)CC4)sc23)ccc1OCC(=O)NCCCCCCCCNC(=O)COc1cccc2c1C(=O)N(C1CCC(=O)NC1=O)C2=O (stereo not shown) [Compound I-2],71477,95.1 nM,significantly induce formation of the complex,3390 nM,43.7 nM,18.9 nM,improved dimerization relative to the short four-carbon linked compound I-1,Marked protein loss,–,–
COc1cc(-c2cn(C)c(=O)c3cc(C(=N)NC4CCS(=O)(=O)CC4)sc23)ccc1OCC(=O)NCCCOCCOCCOCCCNC(=O)COc1cccc2c1C(=O)N(C1CCC(=O)NC1=O)C2=O (stereo not shown) [Compound I-3],50182,44.9 nM,significantly induce formation of the complex,3140 nM,49.5 nM,36.5 nM,reduced this activity,–,–,–
COc1cc(-c2cn(C)c(=O)c3cc(C(=N)NC4CCS(=O)(=O)CC4)sc23)ccc1OCC(=O)NCCCCCCCCNc1cccc2c1C(=O)N(C1CCC(=O)NC1=O)C2=O (stereo not shown) [Compound I-5],67227,37.4 nM,significantly induce formation of the complex,1560 nM,10.8 nM,15.5 nM,–,effectively downregulate BRD9 over a broad range of concentrations,–,–
COc1cc(-c2cn(C)c(=O)c3cc(C(=N)NC4CCS(=O)(=O)CC4)sc23)ccc1OCC(=O)N1CCC(C2CCN(C(=O)COc3cccc4c3C(=O)N(C3CCC(=O)NC3=O)C4=O)CC2)CC1 (stereo not shown) [Compound I-7],107794,54.0 nM,significantly induce formation of the complex,1510 nM,16 nM,12.5 nM,significant improvement,–,significant improvement,–
COc1cc(-c2cn(C)c(=O)c3cc(C(=N)NC4CCS(=O)(=O)CC4)sc23)ccc1OCC(=O)NCCCCCCOc1cccc2c1C(=O)N(C1CCC(=O)NC1=O)C2=O (stereo not shown) [Compound I-8],144813,111 nM,significantly induce formation of the complex,7000 nM,20.1 nM,30 nM,further improved dimerization relative to compound I-2,Marked protein loss,–,slightly improved binding over acetamide ethers I-1 and I-2
COc1cc(-c2cn(C)c(=O)c3cc(C(=N)NC4CCS(=O)(=O)CC4)sc23)ccc1OCC(=O)NCCCCCCCCNc1ccc2c(c1)C(=O)N(C1CCC(=O)NC1=O)C2=O (stereo not shown) [Compound I-9],46614,33.7 nM,significantly induce formation of the complex,1110 nM,17.6 nM,11.5 nM,superior,–,superior,–
COc1cc(-c2cn(C)c(=O)c3cnccc23)cc(OC)c1CN(C)CC(=O)NCCCCCCNc1ccc2c(c1)C(=O)N(C1CCC(=O)NC1=O)C2=O (stereo not shown) [Compound I-12],60256,8.39 nM,significantly induce formation of the complex,> 50000 nM,8.5 nM,56.6 nM,–,–,–,–
COc1cc(-c2cn(C)c(=O)c3cnccc23)cc(OC)c1CN(C)CC(=O)NCCCCCCCCNc1cccc2c1C(=O)N(C1CCC(=O)NC1=O)C2=O (stereo not shown) [Compound I-15],139380,8.22 nM,significantly induce formation of the complex,> 50000 nM,8.35 nM,83.1 nM,–,–,–,–
COc1cc(-c2cn(C)c(=O)c3cnccc23)cc(OC)c1CN(C)CC(=O)NCCOCCOCCOCC(=O)N[C@@H](C(=O)N1C[C@@H](O)C[C@@H]1C(=O)NCc1ccc(-c2scnc2C)cc1)C(C)(C)C [Compound I-23],–,–,–,> 50000 nM,–,43.2 nM,–,–,–,–
COc1cc(-c2cn(C)c(=O)c3cnccc23)cc(OC)c1CN(C)CC(=O)NCCCCCCCCNC(=O)COc1cccc2c1C(=O)N(C1CCC(=O)NC1=O)C2=O (stereo not shown) [Compound I-24],58563,27.3 nM,significantly induce formation of the complex,> 50000 nM,14.8 nM,48 nM,–,–,–,–
